Experimental data: patent US10815210B2, “Benzocyclobutane derivatives useful as dual SGLT1 / SGLT2 modulators” (Janssen Pharmaceutica NV, priority 2016, dated 2020)

What was measured:
human SGLT1 = biological target: T1, human SGLT1 (Homo sapiens, UniProt P13866); test: SGLT1 assay: Na-dependent 14C-AMG uptake in CHO-K1 cells stably expressing human SGLT1; type: cell-based; conditions: 500 μM AMG, 2 hours at 37° C.
T1 construct: expressed in transfected cells; host or cells: CHO-K1
T1 sequence (P13866 1-664): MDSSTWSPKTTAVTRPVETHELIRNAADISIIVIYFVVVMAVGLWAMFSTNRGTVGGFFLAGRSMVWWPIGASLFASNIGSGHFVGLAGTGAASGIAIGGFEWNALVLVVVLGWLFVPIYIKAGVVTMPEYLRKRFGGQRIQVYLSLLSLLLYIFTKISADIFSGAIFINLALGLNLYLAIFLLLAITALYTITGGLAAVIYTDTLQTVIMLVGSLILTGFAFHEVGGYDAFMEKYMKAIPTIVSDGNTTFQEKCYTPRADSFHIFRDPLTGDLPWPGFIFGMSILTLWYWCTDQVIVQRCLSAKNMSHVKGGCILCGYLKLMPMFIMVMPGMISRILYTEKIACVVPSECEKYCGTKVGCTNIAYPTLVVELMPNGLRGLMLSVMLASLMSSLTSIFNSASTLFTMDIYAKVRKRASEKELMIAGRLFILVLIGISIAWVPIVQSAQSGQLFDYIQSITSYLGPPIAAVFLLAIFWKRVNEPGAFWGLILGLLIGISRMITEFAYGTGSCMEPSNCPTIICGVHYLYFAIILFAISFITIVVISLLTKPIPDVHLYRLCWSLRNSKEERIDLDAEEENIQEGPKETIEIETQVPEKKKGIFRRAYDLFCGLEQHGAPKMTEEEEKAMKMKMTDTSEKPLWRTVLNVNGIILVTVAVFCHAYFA
Method: (§1) SGLT1 and SGLT2 were cloned in form of cDNA from human small intestine (Genbank M24847), and from human kidney (Genbank M95549), respectively. Subsequently, each full cDNA was subcloned into pcDNA with each construct's integrity verified through follow-on sequencing. To generate CHO-K1 cells that stably express human SGLT1 or human SGLT2, CHO-K1 cells were transfected using DMRIE-C reagent (Life Technologies, Gaithersburg, Md.). Transfected cells were then selected in the presence of 500 μg/ml of the Geneticin (G418 Cellgro Catalog No. 30234-CI)
(§2) Individual clones were then characterized using the following cell-based assay for sodium-dependent glucose transport:
(§3) Inhibition of SGLT1 and SGLT2 activity was assessed in CHO K1 cells stably expressing either human SGLT1 or SGLT2, using the SGLT specific glucose analog methyl-glucopyranoside (Sigma Catalog No. M-9376). Cells were plated (45,000 cells/well) in white wall 96-well plates (COSTAR, Cat#3903) for 24 hours in growth medium, then a final concentration of 10 mM Na-Butyrate (ALDRICH Cat#30341-0) was added. The cells were incubated for 24 hours. On the day of the assay, cells were rinsed and treated with test compounds (at concentrations of 0.001 μM to 10 μM) in assay buffer (50 mM HEPES, 20 mM Tris base, 5 mM KCl, 1 mM MgCl2, 1 mM CaCl2 and 137 mM NaCl, pH 7.4) for 10 minutes. Cells were then incubated with ^14C-a-methyl-d-glucopyranoside (AMG, Amersham Catalog No. CFB 76), using 0.07 μCi per well in 500 μM AMG final concentration. The cells were incubated for 2 hours at 37° C. with 5% CO2 and washed two times with ice-cold Phosphate Buffer Solution (Cellgro Catalog No. 21030-CV). The cells were then solubilized by adding 60 μl of MICROSCINT™20 and the Na-dependent ^14C-AMG uptake was quantified by measuring radioactivity. Plates were counted in a TopCount (Packard, Meriden, Conn.)

human SGLT2 = biological target: T2, human SGLT2 (Homo sapiens, UniProt P31639); test: SGLT2 assay: Na-dependent 14C-AMG uptake in CHO-K1 cells stably expressing human SGLT2; type: cell-based; conditions: 500 μM AMG, 2 hours at 37° C.
T2 construct: expressed in transfected cells; host or cells: CHO-K1
T2 sequence (P31639 1-672): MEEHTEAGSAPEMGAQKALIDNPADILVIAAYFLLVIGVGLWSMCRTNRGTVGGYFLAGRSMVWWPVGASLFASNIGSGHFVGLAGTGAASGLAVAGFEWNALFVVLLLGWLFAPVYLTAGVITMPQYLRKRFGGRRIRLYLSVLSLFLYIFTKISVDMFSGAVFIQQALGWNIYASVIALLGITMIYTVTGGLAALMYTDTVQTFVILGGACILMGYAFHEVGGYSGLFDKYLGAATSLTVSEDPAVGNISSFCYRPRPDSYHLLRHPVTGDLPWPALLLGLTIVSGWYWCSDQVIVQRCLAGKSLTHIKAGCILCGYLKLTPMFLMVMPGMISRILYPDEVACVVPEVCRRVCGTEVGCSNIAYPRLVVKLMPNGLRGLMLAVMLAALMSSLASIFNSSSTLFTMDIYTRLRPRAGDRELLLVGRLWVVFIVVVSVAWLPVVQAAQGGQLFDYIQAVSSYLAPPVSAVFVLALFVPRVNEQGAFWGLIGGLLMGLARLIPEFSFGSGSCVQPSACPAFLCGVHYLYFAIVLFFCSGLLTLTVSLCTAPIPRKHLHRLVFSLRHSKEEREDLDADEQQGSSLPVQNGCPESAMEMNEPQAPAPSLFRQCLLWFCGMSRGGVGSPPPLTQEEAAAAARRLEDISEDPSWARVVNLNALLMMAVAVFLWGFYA
Method: as §1, §2, §3

Row | IC50 (human SGLT1) | IC50 (human SGLT2) | Compound
1 | 4 nM | 1 nM | [2H]C([2H])(c1ccc2c(c1)CC2)c1cc([C@@H]2O[C@H](CO)[C@@H](O)[C@H](O)[C@H]2O)c(O)cc1C (single isomer, unassigned) [Compound 52]
2 | 63 nM | 1 nM | [2H]C([2H])(c1ccc2c(c1)CC2)c1cc([C@@H]2O[C@H](CO)[C@@H](O)[C@H](O)[C@H]2O)ccc1Cl (single isomer, unassigned) [Compound 54]
3 | 44 nM | 6 nM | [2H]C([2H])(c1ccc2c(c1)CC2)c1cc([C@@H]2O[C@H](CO)[C@@H](O)[C@H](O)[C@H]2O)ccc1OC (single isomer, unassigned) [Compound 57]
4 | 140 nM | 3 nM | [2H]C([2H])(c1ccc2c(c1)CC2)c1cc([C@@H]2O[C@H](CO)[C@@H](O)[C@H](O)[C@H]2O)c(OC)cc1OC (single isomer, unassigned) [Compound 59]
5 | 7 nM | 4 nM | [2H]C1([2H])Cc2ccc(Cc3cc([C@@H]4O[C@H](CO)[C@@H](O)[C@H](O)[C@H]4O)c(O)cc3C)cc21 (single isomer, unassigned) [Compound 61]
6 | 168 nM | 9 nM | [2H]C1([2H])Cc2ccc(Cc3cc([C@@H]4O[C@H](CO)[C@@H](O)[C@H](O)[C@H]4O)ccc3Cl)cc21 (single isomer, unassigned) [Compound 62]
7 | 93 nM | 4 nM | [2H]C1([2H])Cc2ccc(Cc3cc([C@@H]4O[C@H](CO)[C@@H](O)[C@H](O)[C@H]4O)ccc3OC)cc21 (single isomer, unassigned) [Compound 64]
8 | 41 nM | 2 nM | [2H]C1([2H])Cc2ccc(Cc3cc([C@@H]4O[C@H](CO)[C@@H](O)[C@H](O)[C@H]4O)c(OC)cc3OC)cc21 (single isomer, unassigned) [Compound 68]
9 | 62 nM | 1 nM | [2H]C1([2H])Cc2cc(Cc3cc([C@@H]4O[C@H](CO)[C@@H](O)[C@H](O)[C@H]4O)ccc3Cl)ccc21 (single isomer, unassigned) [Compound 81]
10 | 30 nM | 8 nM | [2H]C1([2H])Cc2cc(Cc3cc([C@@H]4O[C@H](CO)[C@@H](O)[C@H](O)[C@H]4O)ccc3OC)ccc21 (single isomer, unassigned) [Compound 82]
11 | 63 nM | 2 nM | [2H]C1([2H])Cc2cc(Cc3cc([C@@H]4O[C@H](CO)[C@@H](O)[C@H](O)[C@H]4O)c(OC)cc3OC)ccc21 (single isomer, unassigned) [Compound 84]
12 | 11 nM | 2 nM | [2H]c1c(C)c(Cc2ccc3c(c2)CC3)cc([C@@H]2O[C@H](CO)[C@@H](O)[C@H](O)[C@H]2O)c1O (single isomer, unassigned) [Compound 121]
13 | 5 nM |  | OC[C@H]1O[C@@H](c2cc(Cc3ccc4c(c3)CC4)c(Cl)cc2O)[C@H](O)[C@@H](O)[C@@H]1O [Compound 8, (2S,3R,4R,5S,6R)-2-(5-(bicyclo[4.2.0]octa-1(6),2,4-trien-3-ylmethyl)-4-chloro-2-hydroxyphenyl)-6-(hydroxymethyl)oxane-3,4,5-triol]
14 | 7 nM |  | [2H]C([2H])(c1ccc2c(c1)CC2)c1cc([C@@H]2O[C@H](CO)[C@@H](O)[C@H](O)[C@H]2O)c(O)cc1Cl [Compound 55, (2S,3R,4R,S,6R)-2-(5-[bicyclo[4.2.0]octa-1(6),2,4-trien-3-yl(dideuterium)methyl]-4-chloro-2-hydroxyphenyl)-6-(hydroxymethyl)oxane-3,4,5-triol]
15 | 15 nM |  | [2H]C([2H])([2H])Oc1cc(C)c(Cc2ccc3c(c2)CC3)cc1[C@@H]1O[C@H](CO)[C@@H](O)[C@H](O)[C@H]1O [Compound 110]
16 | 13 nM |  | [2H]C([2H])([2H])Oc1cc(CC)c(Cc2ccc3c(c2)CC3)cc1[C@@H]1O[C@H](CO)[C@@H](O)[C@H](O)[C@H]1O [Compound 111]
17 | 41 nM |  | [2H]C([2H])([2H])Oc1cc(C)c(C([2H])([2H])c2ccc3c(c2)CC3)cc1[C@@H]1O[C@H](CO)[C@@H](O)[C@H](O)[C@H]1O [Compound 119]
